TGI and GI50 data for 13 compounds are collected here from PubChem BioAssay (NCI).

Values joined by “and” are separate entries in the source; they are usually repeats but may differ in a detail not shown here. Identical values can stand only once.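 Growth conditions: 96-well plates. Treatment: test compound, 48 hours, 5 concentrations. Analysis: linear interpolation between bracketing concentrations; unreached endpoints set to highest concentration. The concentration for 50% growth inhibition is given as GI50. The concentration for full growth arrest is given as TGI.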 Some results are limits rather than exact numbers.

Test in all cases: growth of human tumour cells (NCI), 48 h
Assay [1] deals with ACHN renal.
The subject of assay [2] is EKVX NSCLC.
Assay [3] concerns HCT-116 colon.
Assay [4] concerns HCT-15 colon.
For assay [5], the system named is IGROV1 ovarian.
For assay [6], the system named is MCF7 breast.
Assay [7] deals with PC-3 prostate.
For assay [8], the system named is SF-268 CNS.
Assay [9] deals with SF-295 CNS.
The subject of assay [10] is SK-MEL-5 melanoma.

As to `CCOC(=O)c1cnc2oc3ccc(O)cc3c2c1-c1ccccc1`, the TGI in assay [1], in assay [2], in [3], in assay [4], in assay [5] and in [6] was more than 100 µM each time. The TGI in assay [7], in assay [8], in assay [9] and in [10] was more than 100 µM throughout. Besides, the GI50 is 2.53 µM in assay [5] and 29.7 µM in assay [8].

As to `O=c1[nH]nc(-c2ccccc2)n1/N=C/c1cccnc1`, the TGI in assay [1], in assay [2], in [3], in [4], in assay [5] and in [6] was more than 100 µM in each case. In addition, the TGI in [7], in [8], in [9] and in [10] was more than 100 µM each time.

For `C=C(C)C(O)C(O)c1c(OC)ccc2ccc(=O)oc12` (stereo not drawn), the TGI in [1], in [2], in assay [3], in assay [4], in assay [5] and in assay [6] was more than 100 µM in each case. Besides, the TGI in [7], in assay [8], in [9] and in assay [10] was more than 100 µM throughout.

On to `O=C1/C(=N\S(=O)(=O)c2ccccc2)C([n+]2ccc(Cc3ccccc3)cc2)=C([O-])c2ccccc21`, for which the TGI came out at 4.33 µM in [1]; 3.27 µM in assay [2]; 2.46 µM in [3]; 3.36 µM in [4]; 4.92 µM in assay [5]; 2.12 µM in assay [6]. Besides, the TGI amounted to 9.39 µM in assay [7], 3.9 µM in [8], 3.22 µM in [9] and 0.302 µM in [10].

As to `O=C(OCCN=c1c2ccccc2ccc2ccccc12)c1ccc([N+](=O)[O-])cc1`, the TGI in [1], in [2], in assay [3], in assay [4], in assay [5] and in assay [6] was more than 100 µM in each case. Also, the TGI in assay [7], in assay [8], in assay [9] and in [10] was more than 100 µM in each case.

Turning to `CCCCCCCCCCCCCCCCCCNc1ccn(C2OC(COP(=O)(O)OCC3OC(n4cc(F)c(NCCCCCCCCCCCCCCCCCC)nc4=O)CC3O)C(O)C2O)c(=O)n1` (stereo not drawn), the TGI in [1], in assay [2], in assay [3], in assay [4], in [5] and in assay [6] was more than 100 µM throughout. The TGI in [7], in assay [8], in assay [9] and in assay [10] was more than 100 µM in each case.

With `CCNC(=O)c1cc(/C=C/c2ccc([N+](=O)[O-])o2)nc2ccccc12`, the TGI is more than 100 µM in assay [1]; more than 100 µM in assay [2]; more than 100 µM in [3]; more than 100 µM in assay [4]; more than 65.8 µM in [5]; more than 100 µM in assay [6]. Moreover, the TGI in [7] is more than 100 µM; in [8] it was more than 100 µM; in [9] it was more than 100 µM; in assay [10] it was 4.1 µM.

For the compound `CCOP(=O)(OCC)C1CC(n2cc(C)c(=O)[nH]c2=O)OC1CO` (stereo not drawn), the TGI in assay [1], in assay [2], in assay [3], in assay [4], in assay [5] and in assay [6] was more than 100 µM in each case. The TGI in [7], in assay [8], in assay [9] and in assay [10] was more than 100 µM in each case. Further, the GI50 in [2] was 44.1 µM and > 100 µM.

`COc1c(O)cc(O)c2c(=O)cc(-c3ccccc3)oc12`: the TGI in [1] is more than 100 µM; in assay [2], more than 100 µM; in assay [3], 78.4 µM; in assay [4] it was more than 100 µM; in assay [5] it was more than 100 µM; in assay [6] it was more than 100 µM. Moreover, the TGI in assay [7], in assay [8], in [9] and in assay [10] was more than 100 µM in each case.

With `CSC1=N/C(=C\c2ccco2)C(=O)N1CN1CCOCC1`, the TGI is more than 89.4 µM in [1]; more than 100 µM in [2]; more than 66.9 µM in assay [3]; more than 100 µM in [4]; more than 100 µM in assay [5]; more than 100 µM in assay [6]. For the same compound, the TGI in assay [7] was more than 100 µM; in [8], more than 78.3 µM; in assay [9] it was more than 100 µM; in assay [10], more than 80.3 µM.

Take `O=C(Nc1ccccc1)N(CCCCN(Cc1ccccc1)C(=O)Nc1ccccc1)Cc1ccccc1`: the TGI in assay [1], in [2], in assay [3], in [4], in assay [5] and in assay [6] was more than 100 µM throughout. Moreover, the TGI in [7], in assay [8], in assay [9] and in assay [10] was more than 100 µM throughout.

Regarding `Cc1ccc2c(c1C)C(=O)/C(=C/c1ccccc1C(=O)O)C2`, the TGI in assay [1], in [2], in assay [3], in assay [4], in assay [5] and in [6] was more than 100 µM each time. Moreover, the TGI in assay [7], in assay [8], in assay [9] and in [10] was more than 100 µM throughout.

As to `O=c1cc(N2CCN(c3cc(=O)n4ccccc4n3)CC2)oc2ccccc12`, the TGI in [1] was more than 100 µM; in assay [2], more than 31.6 µM; in assay [3], more than 100 µM; in assay [4], more than 100 µM; in assay [5] it was more than 100 µM; in [6] it was more than 100 µM. Also, the TGI in assay [7] was more than 100 µM; in assay [8] it was more than 65.3 µM; in [9], more than 100 µM; in assay [10] it was more than 100 µM.
